Laboratory results: patent US9539237B2, “Compositions and methods for drug-sensitization or inhibition of a cancer cell” (The Texas A&M University System, priority 2012, dated 2017)
Read-outs that look alike come from different tables or passages of the source. Numbered stars: 1 amine (or outer) side, 2 acyl side, 3 side chain; on linkers, the order of the positions; unused ones are H or OH. Bridge positions count the residues as written; N and C are the ends. Square brackets hold non-standard residues; d marks the D form. Peptide text beside a SMILES is read from it. I, II: the chains in the order shown. Actinocin(9to1) = Cc1c2oc3c(C)ccc(C(=O)[*:1])c3nc-2c(C(=O)[*:2])c(N)c1=O; NMeV = CN[C@H](C(=O)O)C(C)C; Sar = CNCC(=O)O

How the values were obtained:
[1] = tested on: CHOP-resistant G3 NHL cells; test: Cell growth assay (resazurin fluorescence) on G3 cells; assay type: cell-based, human; conditions: for Magnitude of potentiation in combination with doxorubicin: G3; for IC50: Homo sapiens
Procedure: Compositions were tested on CHOP-resistant G3 NHL cells that had been cultivated in RPMI medium for five days. Prior to assay, the cells were counted by haemocytometer and cell concentration standardized to 625,000 cells/ml. Test drugs were solubilized in 100% DMSO and then diluted to final assay concentration with 0.1M phosphate buffered saline (PBS) and a final DMSO concentration of 0.5%. […] The metabolic dye rezasurin was added to the wells of the assay plate at a final concentration of 20 μg/ml and the plates were incubated for an additional 24 hours. The plates were then read in a BMG Polarstar plate reader at wavelength (573-605) and the data plotted as OD versus increasing dilutions (i.e., decreasing total amounts) of rifabutin derivative concentration.
(§1) In these experiments, the following cell lines were used: CHOP-resistant NHL cell line G3, CHOP-sensitive NHL cell line CRL2631, the multi-drug resistant sarcoma cell line MES-SA-Dx5; multi-drug-resistant breast cancer cell line MDA-MB-231, multi-drug resistant ovarian carcinoma cell line SK-OV3, multi-drug resistant ovarian cancer cell line NCI/ADR-RES, drug-sensitive ovarian cancer cell line OVCAR-5, and multi-drug resistant ovarian cancer cell line OVCAR-3. […]

[2] = tested on: multi-drug resistant sarcoma cell line MES-SA-Dx5; test: Cell growth assay on MES-SA-Dx5 cells; assay type: cell-based
Excerpt: (§2) In these experiments, the following cell lines were used: CHOP-resistant NHL cell line G3, CHOP-sensitive NHL cell line CRL2631, the multi-drug resistant sarcoma cell line MES-SA-Dx5; multi-drug-resistant breast cancer cell line MDA-MB-231, multi-drug resistant ovarian carcinoma cell line SK-OV3, multi-drug resistant ovarian cancer cell line NCI/ADR-RES, drug-sensitive ovarian cancer cell line OVCAR-5, and multi-drug resistant ovarian cancer cell line OVCAR-3.
(§3) Additional cell lines used include: ovarian cancer OVCAR-8. T lymphoblastoid leukemia MOLT-4, dexamethasone-resistant multiple myeloma MM.1R, myeloid leukemia cells HL-60, osteosarcoma cells U-2 OS, and myeloma RPMI 8226.

[3] = tested on: MMP2; test: MMP2 secretion ELISA in U2-OS cells; assay type: cell-based; conditions: 5 uM RTI-79
[4] = tested on: multi-drug resistant ovarian cancer cell line NCI/ADR-RES; test: Cell growth assay on NCI/ADR-RES cells; assay type: cell-based
Excerpt: as §2, §3

[5] = tested on: multi-drug resistant ovarian cancer cell line OVCAR-3; test: Cell growth assay on OVCAR-3 cells; assay type: cell-based
Excerpt: as §2, §3

[6] = tested on: total intracellular ROS; test: Intracellular ROS by CellROX staining and flow cytometry; assay type: cell-based; conditions: for Induction of ROS: OVCAR8, ADR-RES and G3 cells, 2 hrs, 10 uM, FIG. 38
Excerpt: Cells were then stained with the fluorescent ROS indicator, CellROX, and subjected to flow cytometry to quantitate total intracellular ROS.
The electron transport chain (ETC) is known to be a primary generator of ROS in the cell. Most of the ROS is generated by Complexes I and III of the ETC. Inhibition of Complex I results in electrons piling up and leaking to react with oxygen to produce ROS.
(§4) MDR/P-gp activity is closely associated with calcium status in the cell, so calcium modulators were tested for effects on ROS. […] Relatively Dox-sensitive lymphoma (CRL2631, 10S, WSU) and ovarian carcinoma (OVCAR8) and more Dox-resistant lymphoma (G3R, 10R, WSUR) and ovarian carcinoma (ADR) were treated with 10 uM […] for 2 hrs. […] Cells were co-stained with the cell-permeable red fluorescent ROS indicator, CellROX, and cell-permeable green fluorescent calcium indicator. Fluo-4AM, and then subjected to flow cytometry to quantitate changes in ROS and calcium levels.
(§5) All samples were analyzed at the same time in flow cytometry.

[7] = Pharmacokinetics (plasma concentration, half-life, tissue absorption); conditions: after administration
[8] = tested on: drug-sensitive ovarian cancer cell line OVCAR-5; test: Cell growth assay on OVCAR-5 cells; assay type: cell-based
Excerpt: as §2, §3

[9] = tested on: multi-drug-resistant breast cancer cell line MDA-MB-231; test: Cell growth assay on MDA-MB-231 cells; assay type: cell-based
Excerpt: as §2, §3

[10] = tested on: VEGF; test: VEGF secretion ELISA in U2-OS cells; assay type: cell-based; conditions: RTI-79
[11] = tested on: multi-drug resistant ovarian cancer cell line (NCI/ADR-RES) xenografts; test: NCI/ADR-RES xenograft efficacy studies in nude mice; assay type: in vivo; conditions: DOXIL 7 mg/kg i.v. + RTI-79 25 mg/kg oral
Excerpt: In a sixth efficacy study, we generated xenografts of multi-drug resistant ovarian cancer cell line (NCI/ADR-RES) by implantation of NCI/ADR-RES cell xenografts in the left and right flanks of nude mice, resulting in two tumors per mice. […] Tumor size was monitored.
In a seventh efficacy study, we generated xenografts of multi-drug resistant ovarian cancer cell line (NCI/ADR-RES) by implantation of NCI/ADR-RES cells xenografts in the left and right flanks of nude mice, resulting in two tumors per mouse. […] Tumor size was monitored.

[12] = tested on: calcium mobilization; test: Calcium mobilization by Fluo-4AM staining and flow cytometry; assay type: cell-based
Procedure: as §4, §5

[13] = tested on: primary human fibroblasts; test: Comparative cytotoxicity on primary human fibroblasts; conditions: FIG. 3A and 3B
[14] = mice treated with RTI-79 with or without DOX
Procedure: Swiss mice were dosed with levels equal to and exceeding that of intended doses.

[15] = tested on: multi-drug resistant ovarian carcinoma cell line SK-OV3; test: Cell growth assay on SK-OV3 cells; assay type: cell-based, human
Excerpt: as §1

[16] = tested on: T lymphoblastoid leukemia MOLT-4; test: Cell growth assay on MOLT-4 cells; assay type: cell-based; conditions: with Rifabutin vs drug alone
Excerpt: as §3

Compound	Magnitude of potentiation in combination with doxorubicin [1]	Magnitude of potentiation in combination with doxorubicin [2]	Magnitude of potentiation in combination with doxorubicin [4]	Magnitude of potentiation in combination with doxorubicin [5]	Induction of ROS [6]	Magnitude of potentiation in combination with doxorubicin [8]	Toxicity to normal cells [13]	Magnitude of potentiation in combination with doxorubicin [15]	also measured
4-deoxy-3,4[2-spiro-[1-(isobutyloxycarbonyl)-piperidin-4-yl]]-(1H)-imidazo-(2,5-dihydro)rifamycin S [RTI-79]	++ (++ potentiation between 2.1 to 5 fold increase)	++ (++ potentiation between 2.1 to 5 fold increase)	++ (++ potentiation between 2.1 to 5 fold increase)	+ (+ potentiation between 1.2 to 2.0 fold increase)	induced ROS	+ (+ potentiation between 1.2 to 2.0 fold increase)	not toxic	+++ (+++ potentiation greater than 5 fold increase)	MMP2 secretion [3]: 10.5 ng/million cells; Time after exposure at which increases in ROS were seen ([6]; G3 cells, 10 uM RTI-79): 1 min; Time to maximal plasma concentration [7]: ≤ 3 h; Magnitude of potentiation in combination with doxorubicin [9]: + (+ potentiation between 1.2 to 2.0 fold increase); VEGF secretion [10]: 436 pg/million cells; Tumor volume lower than in mice receiving only DOXIL ([11]; seventh study, after 46 days): 55%; Tumor volume reduction during the course of the study ([11]; seventh study): 50%; Tumor volume lower than in mice receiving only DOXIL ([11]; sixth study, after 41 days): 66%; Time of treatment before calcium mobilization occurred ([12]; G3 cells, 10 uM RTI-79): > 15 min; Heart tissue histology (H&E) and complete blood count and manual differential [14]: no significant differences
11-deoxy-11-amino-4-deoxy-3,4[2-spiro-[1-(isobutyloxycarbonyl)-piperidin-4-yl]]-(1H)-imidazo-(2,5-dihydro)rifamycin S [RTI-176]	+++ (+++ potentiation greater than 5 fold increase)					+ (+ potentiation between 1.2 to 2.0 fold increase)	not toxic	+++ (+++ potentiation greater than 5 fold increase)	Fold increase in potency over DOX alone ([1]; lymphoma cell line G3): 5.2 fold
Cc1c2oc3c(C)ccc(C(=O)N[C@@H]4C(=O)N[C@H](C(C)C)C(=O)N5CCC[C@H]5C(=O)N(C)CC(=O)N(C)[C@@H](C(C)C)C(=O)O[C@@H]4C)c3nc-2c(C(=O)N[C@@H]2C(=O)N[C@H](C(C)C)C(=O)N3CCC[C@H]3C(=O)N(C)CC(=O)N(C)[C@@H](C(C)C)C(=O)O[C@@H]2C)c(N)c1=O [Actinomycin D, actinomycin D, reference compound] (I: T[dV]P[Sar][NMeV] / II: T[dV]P[Sar][NMeV]; ester I:1-I:C, II:1-II:C; linker I:N-II:N via Actinocin(9to1))									Fold increase in potency ([2]; with Rifabutin vs drug alone): 3 fold; Fold increase in potency [16]: >5 fold
CO[C@H]1/C=C/O[C@@]2(C)Oc3c(C)c(O)c4c(c3C2O)C2=NC3(CCN(C(=O)OCC(C)C)CC3)NC2=C(NC(=O)/C(C)=C\C=C\[C@H](C)[C@H](O)[C@@H](C)[C@@H](O)[C@@H](C)[C@H](OC(C)=O)[C@@H]1C)C4=O (stereo partly drawn) [RTI-175, 11-deoxy-11-hydroxy-4-deoxy-3,4[2-spiro-[1-(isobutyloxycarbonyl)-piperidin-4-yl]]-(1H)-imidazo-(2,5-dihydro)rifamycin S]	++ (++ potentiation between 2.1 to 5 fold increase)	+ (+ potentiation between 1.2 to 2.0 fold increase)	++ (++ potentiation between 2.1 to 5 fold increase)	+ (+ potentiation between 1.2 to 2.0 fold increase)		++ (++ potentiation between 2.1 to 5 fold increase)		+++ (+++ potentiation greater than 5 fold increase)	IC50 [1]: > 64 µM; IC50 ([1]; read-out: IC50 (μM) with doxorubicin (1 μM)): 1.06 µM
COc1cc2c(cc1OC)CN(CCc1ccc(NC(=O)c3cccc4c(=O)c5cccc(OC)c5[nH]c34)cc1)CC2 [elacridar]					induced ROS				Induction of ROS relative to control drugs ([6]; ADR and OVCAR8 cells, FIG. 41A): induced ROS; Induction of calcium ([12]; FIG. 41B): induced calcium
